Test results taken from patent publication US10093623B2, “Cyclic amides as MetAP-2 inhibitors” (MERCK PATENT GmbH, priority 2012, dated 2018).

target: MetAP-2 (Homo sapiens, UniProt P50579); experiment: MetAP-2 activity measurement (coupled enzymatic reactions, Met-Arg-Ser substrate, dianisidine detection at 450 nm); type: biochemical; details: Inhibition of MetAP-2; read-out: IC50 enzyme
How it was run: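 Rate read from the linear part of the 450 nm absorbance trace. Dianisidine oxidation by peroxidase reports H2O2 made when amino acid oxidase acts on methionine cleaved from MAS tripeptide, one mol dye per mol Met; extinction coefficient gives molar activity.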

MetAP-2, sequence (P50579 whole entry, species assumed): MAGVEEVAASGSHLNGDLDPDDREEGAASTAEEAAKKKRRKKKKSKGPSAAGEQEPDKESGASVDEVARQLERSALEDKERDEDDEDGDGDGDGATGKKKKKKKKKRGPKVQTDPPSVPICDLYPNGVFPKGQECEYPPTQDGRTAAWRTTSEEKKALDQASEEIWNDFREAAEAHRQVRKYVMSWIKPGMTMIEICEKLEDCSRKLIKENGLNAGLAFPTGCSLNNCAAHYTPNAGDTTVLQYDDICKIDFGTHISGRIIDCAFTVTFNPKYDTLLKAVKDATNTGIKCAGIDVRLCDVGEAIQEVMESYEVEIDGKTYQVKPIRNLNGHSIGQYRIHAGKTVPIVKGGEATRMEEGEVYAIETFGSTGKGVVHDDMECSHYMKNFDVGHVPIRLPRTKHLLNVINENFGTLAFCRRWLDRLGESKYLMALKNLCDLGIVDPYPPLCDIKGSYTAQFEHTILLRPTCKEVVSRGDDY

Molecule	IC50 [nM]
N#CCn1cc(N2CC[C@@](O)(C(=O)NCc3cc(F)cc(Cl)c3)C2=O)cn1 [B117, N-(3-Chloro-5-fluorobenzyl)-(R)-1-(1-cyanomethyl-1H-pyrazol-4-yl)-3-hydroxy-2-oxopyrrolidine-3-carboxamide]	> 10000
CC(=O)NS(=O)(=O)c1ccc(N2CCC(O)(C(=O)NCc3cc(F)cc(Cl)c3)C2=O)cc1 (stereo not shown) [B118, N-(3-Chloro-5-fluorobenzyl)-1-(4-acetylsulfamoylphenyl)-3-hydroxy-2-oxopyrrolidine-3-carboxamide]	10 to 1000
NC(=O)Cn1cc(N2CC[C@](O)(C(=O)NCc3cc(F)cc(Cl)c3)C2=O)cn1 [B119, N-(3-Chloro-5-fluorobenzyl)-(S)-1-(1-carbamoylmethyl-1H-pyrazol-4-yl)-3-hydroxy-2-oxo-pyrrolidine-3-carboxamide]	10 to 1000
O=C(NCCO)c1cc2cc(N3CC[C@](O)(C(=O)NCc4cc(F)cc(Cl)c4)C3=O)ccc2[nH]1 [B121, N-(2-hydroxyethyl)-5-[(S)-3-(3-chloro-5-fluorobenzyl-carbamoyl)-3-hydroxy-2-oxo-pyrrolidin-1-yl]-1H-indole-2-carboxamide]	10 to 1000
CN1CCN(C(=O)c2cc3cc(N4CC[C@](O)(C(=O)NCc5cc(F)cc(Cl)c5)C4=O)ccc3[nH]2)CC1 [B122, N-(3-Chloro-5-fluorobenzyl)-(S)-3-hydroxy-1-[2-(4-methyl-piperazin-1-carbonyl)-1H-indol-5-yl]-2-oxopyrrolidine-3-carboxamide]	10 to 1000
CC(C)(C)OC(=O)N1CCN(C(=O)c2cc3cc(N4CC[C@](O)(C(=O)NCc5cc(F)cc(Cl)c5)C4=O)ccc3[nH]2)CC1 [B123, tert-Butyl 4-{5-[(S)-3-(3-chloro-5-fluorobenzylcarbamoyl)-3-hydroxy-2-oxopyrrolidin-1-yl]-1H-indol-2-carbonyl}-piperazine-1-carboxylate]	10 to 1000
O=C1CCc2c(ccc(N3CCC(O)(C(=O)NCc4cc(F)cc(Cl)c4)C3=O)c2F)N1 (stereo not shown) [B124, N-(3-Chloro-5-fluorobenzyl)-1-(5-fluoro-2-oxo-1,2,3,4-tetrahydroquinolin-6-yl)-3-hydroxy-2-oxopyrrolidine-3-carboxamide]	10 to 1000
O=C(c1cc2cc(N3CC[C@](O)(C(=O)NCc4cc(F)cc(Cl)c4)C3=O)ccc2[nH]1)N1CCNCC1 [B126, N-(3-Chloro-5-fluorobenzyl)-(S)-3-hydroxy-2-oxo-1-[2-(piperazin-1-carbonyl)-1H-indol-5-yl]-pyrrolidine-3-carboxamide]	10 to 1000
Nc1ccccc1NC(=O)c1cc2cc(N3CC[C@](O)(C(=O)NCc4cc(F)cc(Cl)c4)C3=O)ccc2[nH]1 [B129, N-(2-Aminophenyl)-5-[(S)-3-(3-chloro-5-fluorobenzyl-carbamoyl)-3-hydroxy-2-oxo-pyrrolidin-1-yl]-1H-indole-2-carboxamide]	10 to 1000
NCCNC(=O)c1cc2cc(N3CC[C@](O)(C(=O)NCc4cc(F)cc(Cl)c4)C3=O)ccc2[nH]1 [B132, N-(2-Aminoethyl)-5-[(S)-3-(3-chloro-5-fluorobenzyl-carbamoyl)-3-hydroxy-2-oxo-pyrrolidin-1-yl]-1H-indole-2-carboxamide]	10 to 1000
O=C(NCc1cc(F)cc(Cl)c1)[C@@]1(O)CCN(c2ccc3[nH]c(-c4nc5ccccc5[nH]4)cc3c2)C1=O [B133, N-(3-Chloro-5-fluorobenzyl)-(S)-1-[2-(1H-benzoimidazol-2-yl)-1H-indol-5-yl]-3-hydroxy-2-oxo-pyrrolidine-3-carboxamide]	10 to 1000
NNC(=O)c1cc2cc(N3CC[C@](O)(C(=O)NCc4cc(F)cc(Cl)c4)C3=O)ccc2[nH]1 [B134, N-(3-Chloro-5-fluorobenzyl)-(S)-1-(2-hydrazinocarbonyl-1H-indol-5-yl)-3-hydroxy-2-oxo-pyrrolidine-3-carboxamide]	10 to 1000
Cc1noc(-c2cc3cc(N4CC[C@](O)(C(=O)NCc5cc(F)cc(Cl)c5)C4=O)ccc3[nH]2)n1 [B135, N-(3-Chloro-5-fluorobenzyl)-(S)-3-hydroxy-1-[2-(3-methyl-1,2,4-oxadiazol-5-yl)-1H-indol-5-yl]-2-oxopyrrolidine-3-carboxamide]	10 to 1000
O=C(NCc1cc(F)cc(Cl)c1)[C@@]1(O)CCN(OCc2ccccc2)C1=O [B136, N-(3-Chloro-5-fluorobenzyl)-(S)-1-benzyloxy-3-hydroxy-2-oxo-pyrrolidine-3-carboxamide]	10 to 1000
O=C(NCc1cc(F)cc(Cl)c1)[C@]1(O)CCN(OCc2ccccc2)C1=O [B138, N-(3-Chloro-5-fluorobenzyl)-(R)-1-benzyloxy-3-hydroxy-2-oxo-pyrrolidine-3-carboxamide]	> 10000
O=C(NCc1cc(F)cc(Cl)c1)[C@@]1(O)CCN(c2cnc3[nH]cc(C(F)(F)F)c3c2)C1=O [B139, N-(3-Chloro-5-fluorobenzyl)-(S)-3-hydroxy-2-oxo-1-(3-trifluoro-methyl-1H-pyrrolo[2,3-b]pyridin-5-yl)pyrrolidine-3-carboxamide]	10 to 1000
O=C(NCc1cc(F)cc(Cl)c1)[C@]1(O)CCN(c2cnc3[nH]cc(C(F)(F)F)c3c2)C1=O [B140, N-(3-Chloro-5-fluorobenzyl)-(R)-3-hydroxy-2-oxo-1-(3-trifluoromethyl-1H-pyrrolo-[2,3-b]pyridin-5-yl)pyrrolidine-3-carboxamide]	> 10000
CNS(=O)(=O)c1ccc(N2CC[C@](O)(C(=O)NCc3cc(F)cc(Cl)c3)C2=O)cc1 [B141, N-(3-Chloro-5-fluorobenzyl)-(S)-3-hydroxy-1-(4-methylsulfamoyl-phenyl)-2-oxopyrrolidine-3-carboxamide]	10 to 1000
(S)-3-(1,1-Dioxo-1l6- thiomorpholine-4-carbonyl)-3- hydroxy-1-phenylpyrrolidin-2-one [A56]	> 10000
